≈ marks a conversion by molar mass, not a printed value. Calls of active or inactive are those of the source. No cut-off for these calls is given here. Where a SMILES comes first, the peptide text is derived from it.
Experiments:
[1] = tested on: Staphylococcus aureus; test: Antibacterial activity against Staphylococcus aureus ATCC 29213 after 18 to 24 hrs in presence of 100% human serum by CLSI-based broth microdilution method; assay type: functional; conditions: time hrs 18-24
[2] = tested on: Cell membrane; test: Induction of cytoplasmic membrane depolarization in Escherichia coli ATCC 25922 at 0.5 to 2 times MIC up to 1000 secs by DiSC3-5 dye-based fluorescence assay; assay type: subcellular; conditions: time sec <=1000
[3] = tested on: Staphylococcus aureus; test: Antibacterial activity against methicillin-resistant Staphylococcus aureus 43300 after 18 to 24 hrs by CLSI-based broth microdilution method; assay type: functional; conditions: time hrs 18-24
[4] = tested on: Escherichia coli; test: Antibacterial activity against Escherichia coli ATCC 25922 infected in C57BL/6 mouse assessed as reduction in IL-6 level in serum at 10 mg/kg, ip measured after 11 hrs by ELISA; assay type: functional, organism-based
[5] = tested on: Cell membrane; test: Induction of morpholoical changes in membrane of Escherichia coli ATCC 25922 assessed as corrugation in bacterial membrane at 1 times MIC after 1 hr by scanning electron microscopy
[6] = tested on: Escherichia coli; test: Antibacterial activity against Escherichia coli ATCC 25922 infected in C57BL/6 mouse assessed as reduction in bacterial load in spleen at 10 mg/kg, ip measured after 11 hrs (reference value: 6.02 log CFU/g); assay type: functional
[7] = tested on: Salmonella enterica; test: Antibacterial activity against Salmonella choleraesuis 503 after 18 to 24 hrs by CLSI-based broth microdilution method; assay type: functional; conditions: time hrs 18-24
[8] = tested on: Escherichia coli; test: Antibacterial activity against Escherichia coli ATCC 25922 after 18 to 24 hrs in presence of 150 mM Na+ by CLSI-based broth microdilution method; assay type: functional; conditions: time hrs 18-24
[9] = Therapeutic index, ratio of MHC for human RBC to geometric mean of peptide MIC for Escherichia coli UB1005; assay type: toxicity; conditions: human red blood cells (RBC), read-out: TI
[10] = tested on: Cell membrane; test: Induction of membrane permeabilization in Escherichia coli ATCC 25922 after 1 hr by PI fluorescence staining-based confocal microscopy analysis
[11] = tested on: Escherichia coli; test: Antibacterial activity against Escherichia coli ATCC 25922 after 18 to 24 hrs in presence of 1 mM Mg2+ by CLSI-based broth microdilution method; assay type: functional; conditions: time hrs 18-24
[12] = tested on: Escherichia coli; test: Antibacterial activity against Escherichia coli ATCC 25922 after 18 to 24 hrs in presence of 50% human serum by CLSI-based broth microdilution method; assay type: functional; conditions: time hrs 18-24
[13] = tested on: Staphylococcus aureus; test: Displacement of BODIPY-TR-cadaverine from Staphylococcus aureus LTA after 4 hrs by fluorescence assay
[14] = Therapeutic index, ratio of MHC for human RBC to geometric mean of peptide MIC for Escherichia coli ATCC 25922; assay type: toxicity; conditions: human red blood cells (RBC), read-out: TI
[15] = Toxicity in C57BL/6 mouse assessed as effect on creatinine level at 20 mg/kg, ip measured after 5 days; assay type: organism-based; conditions: in vivo, 120 h, time 5 day
[16] = tested on: Cell membrane; test: Disruption of membrane integrity in Escherichia coli ATCC 25922 assessed as induction of membrane rupture at 2 times MIC after 1 hr by PI-staining based flow cytometry analysis relative to control
[17] = tested on: Staphylococcus aureus; test: Antibacterial activity against Staphylococcus aureus ATCC 29213 after 18 to 24 hrs in presence of 4.5 mM K+ by CLSI-based broth microdilution method; assay type: functional; conditions: time hrs 18-24
[18] = tested on: Staphylococcus aureus; test: Antibacterial activity against Staphylococcus aureus 29213 with 0.0625-2 mg/mL pepsin for 1 hr followed by test compound addition measured after 4 to 8 hrs by CLSI-based broth microdilution method; assay type: functional, organism-based; conditions: time hrs 4-8
[19] = tested on: Escherichia coli; test: Antibacterial activity against Escherichia coli ATCC 25922 measured after 18 to 24 hrs in presence of chymotrypsin by CLSI-based broth microdilution method; assay type: functional, organism-based; conditions: time hrs 18-24
[20] = tested on: Escherichia coli; test: Antibacterial activity against Escherichia coli ATCC 25922 measured after 18 to 24 hrs in presence of proteinase K by CLSI-based broth microdilution method; assay type: functional, organism-based; conditions: time hrs 18-24
[21] = Toxicity in C57BL/6 mouse assessed as effect on alanine aminotransferase level at 10 mg/kg, ip measured after 5 days; assay type: organism-based; conditions: in vivo, 120 h, time 5 day
[22] = tested on: Staphylococcus epidermidis; test: Antibacterial activity against Staphylococcus epidermidis ATCC 12228 after 18 to 24 hrs by CLSI-based broth microdilution method; assay type: functional; conditions: time hrs 18-24
[23] = tested on: Cell membrane; test: Disruption of membrane integrity in Escherichia coli ATCC 25922 assessed as induction of membrane rupture after 1 hr by PI-staining based flow cytometry analysis; assay type: subcellular
[24] = tested on: Escherichia coli; test: Antibacterial activity against Escherichia coli ATCC 25922 infected in C57BL/6 mouse assessed as reduction in bleeding in spleen at 10 mg/kg, ip measured after 11 hrs by hematoxylin and eosin staining based assay; assay type: functional, organism-based
[25] = tested on: Streptococcus agalactiae; test: Antibacterial activity against Streptococcus agalactiae H92 after 18 to 24 hrs by CLSI-based broth microdilution method; assay type: functional; conditions: time hrs 18-24
[26] = molecular target: Trypsin (Homo sapiens, UniProt P07477+P07478+P35030); test: Stability of compound assessed as trypsin (unknown origin)-mediated drug degradation after 8 hrs by RP-HPLC analysis; assay type: ADME, protein assay
[27] = Hemolytic activity in human RBC assessed as hemolysis at 1 to 128 uM relative to control; assay type: ADME, cell-based, Erythrocyte; conditions: human red blood cells (RBC), dose 1-128 µM, read-out: Activity
[28] = Cytotoxicity against mouse RAW264.7 cells assessed as cell viability at 128 uM by MTT assay relative to control; assay type: cell-based; conditions: read-out: Activity
[29] = tested on: Staphylococcus aureus; test: Antibacterial activity against Staphylococcus aureus 29213 with 0.0625-2 mg/mL proteinase K for 1 hr followed by test compound addition measured after 4 to 8 hrs by CLSI-based broth microdilution method; assay type: functional, organism-based; conditions: time hrs 4-8
[30] = Toxicity in C57BL/6 mouse assessed as effect on alanine aminotransferase level at 20 mg/kg, ip measured after 5 days; assay type: organism-based; conditions: in vivo, 120 h, time 5 day
[31] = tested on: Cell membrane; test: Induction of structural changes in membrane of Staphylococcus aureus ATCC 29213 assessed as membrane damage at 1 times MIC after 1 hr by transmission electron microscopy; assay type: subcellular
[32] = tested on: Staphylococcus aureus; test: Antibacterial activity against Staphylococcus aureus ATCC 29213 after 18 to 24 hrs in presence of 1 mM Mg2+ by CLSI-based broth microdilution method; assay type: functional; conditions: time hrs 18-24
[33] = tested on: Staphylococcus aureus; test: Antibacterial activity against Staphylococcus aureus ATCC 29213 after 18 to 24 hrs in presence of 6 uM Fe3+ by CLSI-based broth microdilution method; assay type: functional; conditions: time hrs 18-24
[34] = tested on: Escherichia coli; test: Antibacterial activity against Escherichia coli ATCC 25922 infected in C57BL/6 mouse assessed as reduction in bacterial load in liver at 10 mg/kg, ip measured after 11 hrs (reference value: 7.12 log CFU/g); assay type: functional
[35] = tested on: Escherichia coli; test: Antibacterial activity against Escherichia coli ATCC 25922 after 18 to 24 hrs in presence of 8 uM Zn2+ by CLSI-based broth microdilution method; assay type: functional; conditions: time hrs 18-24
[36] = tested on: Cell membrane; test: Induction of structural changes in membrane of Escherichia coli ATCC 25922 assessed as cytoplasmic leakage at 1 times MIC after 1 hr by transmission electron microscopy
[37] = tested on: Enterococcus faecalis; test: Antibacterial activity against Enterococcus faecalis ATCC 29212 after 18 to 24 hrs by CLSI-based broth microdilution method; assay type: functional; conditions: time hrs 18-24
[38] = tested on: Staphylococcus aureus; test: Antibacterial activity against Staphylococcus aureus 11011 after 18 to 24 hrs by CLSI-based broth microdilution method; assay type: functional; conditions: time hrs 18-24

SMILES: CC[C@H](C)[C@H](N)C(=O)N[C@H](C(=O)N[C@H](C(=O)N[C@@H](CS)C(=O)N[C@@H](CCCNC(=N)N)C(=O)N[C@@H](CCCCN)C(=O)N1CCC[C@H]1C(=O)N[C@H](C(=O)N[C@H](C(=O)N[C@@H](CS)C(=O)N[C@@H](CCCNC(=N)N)C(=O)N[C@@H](CCCCN)C(=O)N1CCC[C@H]1C(=O)N[C@H](C(=O)N[C@H](C(=O)N[C@@H](CS)C(=O)N[C@@H](CCCNC(=N)N)C(=O)N[C@@H](CCCCN)C(=O)N1CCC[C@H]1C(=O)N[C@H](C(=O)N[C@H](C(=O)N[C@@H](CS)C(=O)N[C@@H](CCCNC(=N)N)C(=O)N[C@@H](CCCCN)C(=O)N1CCC[C@H]1C(=O)N[C@H](C(=O)N[C@H](C(=O)N[C@H](C(N)=O)[C@@H](C)CC)[C@@H](C)CC)[C@@H](C)CC)[C@@H](C)CC)[C@@H](C)CC)[C@@H](C)CC)[C@@H](C)CC)[C@@H](C)CC)[C@@H](C)CC)[C@@H](C)CC)[C@@H](C)CC (H-IIICRKPIICRKPIICRKPIICRKPIII-NH2)
- MIC [1]: 32 µM
- Activity [2]: Active
- MIC [3]: 4 µM (≈ 13.3 µg/mL)
- Activity [4]: Active
- Activity [5]: Active
- Activity [6]: 4.89 log10CFU/g
- MIC [7]: 2 µM (≈ 6.63 µg/mL)
- MIC [8]: 4 µM
- selectivity ratio [9]: 57
- Activity [10]: Active
- MIC [11]: 4 µM
- MIC [12]: 4 µM
- Activity [13]: Dose-dependent effect
- selectivity ratio [14]: 57
- Activity [15]: Non-Toxic
- Activity [16]: > 90%
- MIC [17]: 8 µM
- Activity [18]: Active
- Activity [19]: Active
- Activity [20]: Active
- Activity [21]: Non-Toxic
- MIC [22]: 4 µM (≈ 13.3 µg/mL)
- Activity [23]: Dose-dependent effect
- Activity [24]: Active
- MIC [25]: 2 µM (≈ 6.63 µg/mL)
- Stabilty [26]: Stable
- hemolysis at up to 128 µM [27]: < 5%
- viability at 128 µM [28]: > 90%
- Activity [29]: Active
- Activity [30]: Non-Toxic
- Activity [31]: Active
- MIC [32]: 16 µM
- MIC [33]: 8 µM
- Activity [34]: 5.08 log10CFU/g
- MIC [35]: 2 µM
- Activity [36]: Active
- MIC [37]: 8 µM (≈ 26.5 µg/mL)
- MIC [38]: 4 µM (≈ 13.3 µg/mL)
